ChEMBL document CHEMBL2057125, “Structural simplification of bioactive natural products with multicomponent synthesis. 4. 4H-pyrano-[2,3-b]naphthoquinones with anticancer activity” (2012)

Assays:
LoVo = test: Antiproliferative activity against human LoVo cells assessed as reduction in cell viability after 72 hrs by MTT assay; type: functional
SK-MEL-28 = test: Antiproliferative activity against human SK-MEL-28 cells assessed as reduction in cell viability after 72 hrs by MTT assay; type: functional; conditions: SK-MEL-28, 72 h
[1] = Antiproliferative activity against human MCF7/AZ cells assessed as reduction in cell viability after 48 hrs by MTT assay; type: functional
A549 = test: Antiproliferative activity against human A549 cells assessed as reduction in cell viability after 72 hrs by MTT assay; type: functional; conditions: A549, 72 h
PC-3 = test: Antiproliferative activity against human PC3 cells assessed as reduction in cell viability after 72 hrs by MTT assay; type: functional; conditions: PC-3, 72 h
[2] = Antiproliferative activity against human U373 cells assessed as reduction in cell viability after 72 hrs by MTT assay; type: functional, U-373MG ATCC; conditions: U373 MG
Jurkat [3] = test: Antiproliferative activity against human Jurkat cells assessed as reduction in cell viability after 48 hrs by MTT assay; type: functional
Jurkat [4] = test: Induction of apoptosis in human Jurkat cells assessed as apoptotic cells at 50 uM after 24 hrs using annexin-V/Propidium iodide by flow cytometry; type: functional
HeLa = test: Antiproliferative activity against human HeLa cells assessed as reduction in cell viability after 48 hrs by MTT assay; type: functional
[5] = Antiproliferative activity against human OE21 cells assessed as reduction in cell viability after 72 hrs by MTT assay; type: functional; conditions: OE21, 72 h
[6] = Antiproliferative activity against human Hs683 cells assessed as reduction in cell viability after 72 hrs by MTT assay; type: functional; conditions: Hs 683, 72 h

Row | GI50 (LoVo) | GI50 (SK-MEL-28) | GI50 (A549) | GI50 (PC-3) | GI50 (Jurkat [3]) | GI50 (HeLa) | SMILES | GI50 [1] | GI50 [2] | Activity (Jurkat [4]) | GI50 [5] | GI50 [6]
1 | 3.4 µM | 4.5 µM | 5 µM | 6.2 µM | 17.9 µM | 4 µM | N#CC1=C(N)OC2=C(C(=O)c3ccccc3C2=O)C1c1cccc(Oc2ccccc2)c1 (stereo not drawn) | 2.2 µM | 3.4 µM | 50% | 2.2 µM | 5 µM
2 |  |  |  |  | 105 µM | 4.3 µM | N#CC1=C(N)OC2=C(C(=O)c3ccccc3C2=O)C1c1ccc(OC(F)(F)F)cc1 (stereo not drawn) | 7.1 µM |  | 13.5% |  | 
3 |  |  |  |  | 108 µM | 77.5 µM | N#CC1=C(N)OC2=C(C(=O)c3ccccc3C2=O)C1c1cccc(Cl)c1 (stereo not drawn) | 59.8 µM |  | 22% |  | 
4 |  |  |  |  | 185 µM | 20.5 µM | N#CC1=C(N)OC2=C(C(=O)c3ccccc3C2=O)C1c1ccccc1Cl (stereo not drawn) | 19 µM |  | 6.3% |  | 
5 |  |  |  |  | 105 µM | 31.7 µM | N#CC1=C(N)OC2=C(C(=O)c3ccccc3C2=O)C1c1ccc(Cl)cc1 (stereo not drawn) | 24 µM |  | 23.8% |  | 
6 | 4.3 µM | 17.1 µM | 40.6 µM | 6.2 µM | 172 µM | 5.3 µM | N#CC1=C(N)OC2=C(C(=O)c3ccccc3C2=O)C1c1c(Cl)cccc1Cl (stereo not drawn) | 3.1 µM | 12.8 µM | 5.1% | 17.4 µM | 19.3 µM
7 |  |  |  |  | 20 µM | 16.1 µM | N#CC1=C(N)OC2=C(C(=O)c3ccccc3C2=O)C1c1cccc(Br)c1 (stereo not drawn) | 28.6 µM |  | 48.4% |  | 
8 |  |  |  |  | 30.7 µM | 31.6 µM | N#CC1=C(N)OC2=C(C(=O)c3ccccc3C2=O)C1c1ccccc1Br (stereo not drawn) | 26.3 µM |  | 41.7% |  | 
9 |  |  |  |  | 38.3 µM | 30 µM | N#CC1=C(N)OC2=C(C(=O)c3ccccc3C2=O)C1c1ccc(Br)cc1 (stereo not drawn) | 22.8 µM |  | 40.1% |  | 
10 |  |  |  |  | 52.3 µM | 34.4 µM | N#CC1=C(N)OC2=C(C(=O)c3ccccc3C2=O)C1c1c(F)cccc1Cl (stereo not drawn) | 8 µM |  | 21.3% |  | 
11 |  |  |  |  | 80.5 µM | 11.8 µM | N#CC1=C(N)OC2=C(C(=O)c3ccccc3C2=O)C1c1ccc(C(F)(F)F)cc1 (stereo not drawn) | 5.6 µM |  | 15.5% |  | 
12 |  |  |  |  | 122 µM | 23.6 µM | N#CC1=C(N)OC2=C(C(=O)c3ccccc3C2=O)C1c1ccc(-c2ccccc2)cc1 (stereo not drawn) | 26 µM |  | 11.2% |  | 
13 |  |  |  |  | 43.3 µM | 23.5 µM | N#CC1=C(N)OC2=C(C(=O)c3ccccc3C2=O)C1c1ccccc1 (stereo not drawn) | 18.5 µM |  | 16.7% |  | 
14 |  |  |  |  | 19.1 µM | 9.1 µM | N#CC1=C(N)OC2=C(C(=O)c3ccccc3C2=O)C1c1cccc([N+](=O)[O-])c1 (stereo not drawn) | 10.8 µM |  | 33.6% |  | 
15 |  |  |  |  | 16.8 µM | 11.2 µM | N#CC1=C(N)OC2=C(C(=O)c3ccccc3C2=O)C1c1ccccc1[N+](=O)[O-] (stereo not drawn) | 8.3 µM |  | 25% |  | 
16 |  |  |  |  | 24.3 µM | 16.8 µM | N#CC1=C(N)OC2=C(C(=O)c3ccccc3C2=O)C1c1ccc([N+](=O)[O-])cc1 (stereo not drawn) | 9.8 µM |  | 23.1% |  | 
17 |  |  |  |  | 332 µM | 119 µM | N#CC1=C(N)OC2=C(C(=O)c3ccccc3C2=O)C1c1ccc(C(=O)O)cc1 (stereo not drawn) | 94.4 µM |  | 4.1% |  | 
18 |  |  |  |  | 85 µM | 30.6 µM | N#CC1=C(N)OC2=C(C(=O)c3ccccc3C2=O)C1c1ccc(O)cc1 (stereo not drawn) | 8.6 µM |  | 16.7% |  | 
19 |  |  |  |  | 80.6 µM | 62.5 µM | CC(C)c1ccc(C2C(C#N)=C(N)OC3=C2C(=O)c2ccccc2C3=O)cc1 (stereo not drawn) | 34 µM |  | 2.9% |  | 
20 |  |  |  |  | 47.8 µM | 54.3 µM | Cc1ccc(C2C(C#N)=C(N)OC3=C2C(=O)c2ccccc2C3=O)o1 (stereo not drawn) | 51.6 µM |  | 57.8% |  | 
21 |  |  |  |  | 82.4 µM | 94 µM | N#CC1=C(N)OC2=C(C(=O)c3ccccc3C2=O)C1c1cccs1 (stereo not drawn) | 36.9 µM |  | 11.2% |  | 
22 |  |  |  |  | 23.9 µM | 14.5 µM | N#CC1=C(N)OC2=C(C(=O)c3ccccc3C2=O)C1c1ccncc1 (stereo not drawn) | 6 µM |  | 28.6% |  | 
23 |  |  |  |  | 20.4 µM | 14.2 µM | N#CC1=C(N)OC2=C(C(=O)c3ccccc3C2=O)C1c1cccnc1 (stereo not drawn) | 3.4 µM |  | 20.8% |  | 
24 | 24.4 µM | 4.7 µM | 16.3 µM | 13 µM | 75 µM | 25 µM | CC1(C)CCC2=C(O1)C(=O)c1ccccc1C2=O [ALPHA-LAPACHONE] | 16.7 µM | 23.1 µM | 7.4% | 22.7 µM | 9 µM
25 | 0.3 µM | 0.6 µM | 0.8 µM | 0.01 µM | 6.1 µM | 4.6 µM | CC1(C)CCC2=C(O1)c1ccccc1C(=O)C2=O [LAPACHONE] | 6 µM | 0.4 µM | 51% | 0.6 µM | 0.4 µM
